The experiment has as its target T1, GBA (Homo sapiens, UniProt P04062).
T1 construct: HEK293T cells that contain endogenous GBA; endogenous in cells; host or cells: HEK293T (ATCC CRL-3216) overexpressing GBA2 and GBA3
T1 sequence (P04062 40-536): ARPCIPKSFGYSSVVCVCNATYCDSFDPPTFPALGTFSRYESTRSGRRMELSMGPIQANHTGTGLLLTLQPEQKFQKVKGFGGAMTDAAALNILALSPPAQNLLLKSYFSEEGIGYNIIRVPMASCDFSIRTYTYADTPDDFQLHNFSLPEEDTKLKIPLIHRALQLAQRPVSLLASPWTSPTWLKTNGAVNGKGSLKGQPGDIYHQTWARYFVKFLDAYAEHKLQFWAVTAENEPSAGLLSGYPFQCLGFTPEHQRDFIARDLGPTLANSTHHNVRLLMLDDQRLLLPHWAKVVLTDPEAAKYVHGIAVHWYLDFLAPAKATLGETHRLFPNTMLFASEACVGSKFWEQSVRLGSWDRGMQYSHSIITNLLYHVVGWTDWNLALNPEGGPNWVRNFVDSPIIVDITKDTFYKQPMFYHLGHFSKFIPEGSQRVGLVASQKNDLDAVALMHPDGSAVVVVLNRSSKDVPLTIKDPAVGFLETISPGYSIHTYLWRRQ
The experiment can be described thus: Inhibition in intact HEK293T cells (24 h), read out by cABPP with ABP 10, GBA. The class given is cell-based. The settings on record: for IC50: 24 h treatment, cABPP quantification, n=3. The source says:
We next examined the activity of 1 and 2 towards the three human β‐D‐glucosidase in intact HEK293T cells. […] It is noted that the GBA‐selectivity of both compounds is much improved in intact cells than in the in vitro system (Figure 2 and Table 1). This is especially true for compound 1, where an impressive 4‐logs of selectivity window is observed.
Figure 5 Inhibitory effect of β‐D‐xylo‐configured cyclophellitol 1 and cyclophellitol aziridine 2 on β‐glucosidases in intact HEK293T cells expressing GBA, GBA2 and GBA3. (A) Representative gel images of cABPP where cells were treated for 24 h with indicated inhibitor. Lysates were then prepared and labeled with fluorescent ABP 10. Fluorescently labeled proteins were visualized after SDS‐PAGE (1 set from n=3 replicates). (B) IC50 curves determined by cABPP labeling results. (C) Apparent IC50 values towards β‐glucosidases in intact HEK293T cells producing GBA, GBA2 and GBA3 were determined by the fluorescence quantification based on cABPP SDS‐PAGE results.
ABP labeling procedure: Glycosidases were labeled with excess fluorescent ABPs at optimum conditions. […] After ABP incubation, proteins were denatured by boiling the samples with 5× Laemmli buffer (50 % (v/v) 1 M Tris‐HCl, pH 6.8, 50 % (v/v) 100 % glycerol, 10 % (w/v) DTT, 10 % (w/v) SDS, 0.01 % (w/v) bromophenol blue) for 5 min at 98 °C, and separated by electrophoresis on 10 % (w/v) SDS‐PAGE gels running continuously at 90 V. Wet slab‐gels were scanned on fluorescence using the Typhoon FLA 9500 (GE Healthcare) at λEX 473 nm and λEM≥510 nm for green fluorescent ABP 8; and at λEX 635 nm and λEM≥665 nm for ABP 6, 9 and 10. ABP‐emitted fluorescence was quantified using ImageQuant software (GE Healthcare, Chicago, IL, USA) and curve‐fitted using Prism 8.0 (GraphPad Software). After fluorescence scanning, SDS‐PAGE gels were stained for total protein with Coomassie G250 and scanned on a ChemiDoc MP imager (Bio‐Rad, Hercules, CA, USA).[25] […]

Results on two compounds are retold here after paper PMC8596838, “Xylose‐Configured Cyclophellitols as Selective Inhibitors for Glucocerebrosidase” (Chembiochem, 2021).

By IC50 is commonly meant the concentration needed to halve the response being measured. `O[C@@H]1[C@@H](O)[C@H](O)C[C@H]2N[C@@H]12` [compound 2, β‐D‐xylo‐Cyclophellitol aziridine]: half-maximal inhibition (IC50) was put at 42.2 nM.

Compound `O[C@@H]1[C@@H](O)[C@H](O)C[C@H]2O[C@@H]12` [compound 1, xylo‐cyclophellitol] yielded an IC50 of 5.71 nM. Moreover, the “selectivity window for GBA in intact cells” value (24 h) came out at 4 logs.
